Measured values reported in paper PMC6576746, “Rational discovery of dual-indication multi-target PDE/Kinase inhibitor for precision anti-cancer therapy using structural systems pharmacology” (PLoS Computational Biology, 2019).

Columns and labels:
Assay in all cases: cells
Parameters in all cases: species or system panel of human cancer cell lines; Eurofins OncoPanel proliferation; nuclei count by high-content fluorescence imaging, 10-point dose response
[1] = test system: 22Rv1; details: Homo sapiens, 22Rv1, 72 h, cell count, 3 days
Summary of the method: (§1)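 Cells in RPMI 1640/10% FBS or special medium received compound the day after seeding, with a time-zero plate; 3-day incubation at 37°C, 5% CO2. Nuclei imaged by fluorescence microscopy; 10 half-log doses from 100 μM, 0.1% DMSO. EC50, IC50, GI50 and activity area (0–10) from curve fits.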

[2] = test system: A-704; details: Homo sapiens, A704, 72 h, cell count, 3 days
Summary of the method: as §1

[3] = test system: BFTC-905; details: Homo sapiens, BFTC-905, 72 h, cell count, 3 days
Summary of the method: as §1

[4] = test system: BxPC-3; details: Homo sapiens, BXPC-3, 72 h, cell count, 3 days
Summary of the method: as §1

[5] = test system: CHP-212; details: Homo sapiens, CHP-212, 72 h, cell count, 3 days
Summary of the method: as §1

[6] = test system: D341 Med; details: D341 Med, 72 h, cell count, 3 days
Summary of the method: as §1

[7] = test system: DoTc2 4510; details: Homo sapiens, DoTc2-4510, 72 h, cell count, 3 days
Summary of the method: as §1

[8] = test system: HEC-1-A; details: Homo sapiens, HEC-1-A, 72 h, cell count, 3 days
Summary of the method: as §1

[9] = test system: HUH-6 Clone 5; details: HUH-6-clone5, 72 h, cell count, 3 days
Summary of the method: as §1

[10] = test system: NCI-H292; details: Homo sapiens, NCI-H292, 72 h, cell count, 3 days
Summary of the method: as §1

[11] = test system: NCI-H596; details: Homo sapiens, NCI-H596, 72 h, cell count, 3 days
Summary of the method: as §1

[12] = test system: SW480; details: Homo sapiens, SW480, 72 h, cell count, 3 days
Summary of the method: as §1

[13] = test system: SW900; details: Homo sapiens, SW900, 72 h, cell count, 3 days
Summary of the method: as §1

[14] = test system: TUR; details: 72 h, cell count, 3 days
Summary of the method: as §1

[15] = 50% of maximum possible response

Structure (SMILES): C[C@@H]1CC(=O)NN=C1c1ccc(NN=C(C#N)C#N)cc1 [levosimendan]
- IC50 [1, 15]: 55.6 µM
- GI50 ([1]; corrected for time zero): 45.8 µM
- EC50 ([1]; curve inflection point): 55.6 µM
- IC50 [2, 15]: > 100 µM
- GI50 ([2]; corrected for time zero): 64.7 µM
- EC50 ([2]; curve inflection point): > 100 µM
- IC50 [3, 15]: 13.4 µM
- GI50 ([3]; corrected for time zero): 12.4 µM
- EC50 ([3]; curve inflection point): 13.4 µM
- IC50 [4, 15]: 89.2 µM
- GI50 ([4]; corrected for time zero): 78 µM
- EC50 ([4]; curve inflection point): 89.2 µM
- IC50 [5, 15]: 84.9 µM
- GI50 ([5]; corrected for time zero): 49.1 µM
- EC50 ([5]; curve inflection point): 84.9 µM
- IC50 [6, 15]: 73.8 µM
- GI50 ([6]; corrected for time zero): 39.6 µM
- EC50 ([6]; curve inflection point): 73.8 µM
- IC50 [7, 15]: 14.6 µM
- GI50 ([7]; corrected for time zero): 11.4 µM
- EC50 ([7]; curve inflection point): 10.8 µM
- IC50 [8, 15]: 34.3 µM
- GI50 ([8]; corrected for time zero): 28.2 µM
- EC50 ([8]; curve inflection point): 34.3 µM
- IC50 [9, 15]: 27.1 µM
- GI50 ([9]; corrected for time zero): 20 µM
- EC50 ([9]; curve inflection point): 27.1 µM
- IC50 [10, 15]: 40.3 µM
- GI50 ([10]; corrected for time zero): 34.4 µM
- EC50 ([10]; curve inflection point): 40.3 µM
- IC50 [11, 15]: > 100 µM
- GI50 ([11]; corrected for time zero): > 100 µM
- EC50 ([11]; curve inflection point): 55.5 µM
- IC50 [12, 15]: 15.3 µM
- GI50 ([12]; corrected for time zero): 10.8 µM
- EC50 ([12]; curve inflection point): 13.1 µM
- IC50 [13, 15]: 67.6 µM
- GI50 ([13]; corrected for time zero): 35.9 µM
- EC50 ([13]; curve inflection point): 67.6 µM
- IC50 [14, 15]: 6.72 µM
- GI50 ([14]; corrected for time zero): 5.98 µM
- EC50 ([14]; curve inflection point): 6.49 µM
